System: NCI-H196 complex spheroid viability
Assay: Anticancer human tumor NCI-H196 cell line growth inhibition [LSD1];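 also: spheroids exposed to agents for 7 days before readout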;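 as to viability, T/C: 100% = DMSO vehicle control viability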
Conditions: for IC50: curve of first compound; for viability, T/C: stronger effect = lower value
Procedure, shortened: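 Drug combinations with the LSD1 inhibitor iadademstat tested on tumor cells co-cultured as spheroids with endothelial cells and mesenchymal stem cells. Concentrations descended in half-log increments from clinical Cmax or 10 microM.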

[1] = second compound 0.1 µM, first compound 0.000949 µM
[2] = second compound 0.1 µM, first compound 0.003 µM
[3] = second compound 0.1 µM, first compound 0.00949 µM
[4] = second compound 0.1 µM, first compound 0.03 µM
[5] = second compound 0.1 µM, first compound 0.0949 µM
[6] = second compound 0.1 µM, first compound 0.3 µM
[7] = second compound 0.316 µM, first compound 0.000949 µM
[8] = second compound 0.316 µM, first compound 0.003 µM
[9] = second compound 0.316 µM, first compound 0.00949 µM
[10] = second compound 0.316 µM, first compound 0.03 µM
[11] = second compound 0.316 µM, first compound 0.0949 µM
[12] = second compound 0.316 µM, first compound 0.3 µM
[13] = second compound 1 µM, first compound 0.000949 µM
[14] = second compound 1 µM, first compound 0.003 µM
[15] = second compound 1 µM, first compound 0.00949 µM
[16] = second compound 1 µM, first compound 0.03 µM
[17] = second compound 1 µM, first compound 0.0949 µM
[18] = second compound 1 µM, first compound 0.3 µM
[19] = second compound 3.16 µM, first compound 0.000949 µM
[20] = second compound 3.16 µM, first compound 0.003 µM
[21] = second compound 3.16 µM, first compound 0.00949 µM
[22] = second compound 3.16 µM, first compound 0.03 µM
[23] = second compound 3.16 µM, first compound 0.0949 µM
[24] = second compound 3.16 µM, first compound 0.3 µM
[25] = second compound 10 µM, first compound 0.000949 µM
[26] = second compound 10 µM, first compound 0.003 µM
[27] = second compound 10 µM, first compound 0.00949 µM
[28] = second compound 10 µM, first compound 0.03 µM
[29] = second compound 10 µM, first compound 0.0949 µM
[30] = second compound 10 µM, first compound 0.3 µM

## CCc1c2c(nc3ccc(O)cc13)-c1cc3c(c(=O)n1C2)COC(=O)[C@]3(O)CC + NC1CC1c1ccc(-c2cccc(O)c2)cc1
Second compound 0.1 µM
  IC50: 8.32 nM
Second compound 0.316 µM
  IC50: 9.63 nM
Second compound 1 µM
  IC50: 9.19 nM
Second compound 3.16 µM
  IC50: 6.69 nM
Second compound 10 µM
  IC50: 5.92 nM
[1]
  viability, T/C: 119%
[2]
  viability, T/C: 111%
[3]
  viability, T/C: 42%
[4]
  viability, T/C: 4.2%
[5]
  viability, T/C: 1.09%
[6]
  viability, T/C: 0.82%
[7]
  viability, T/C: 107%
[8]
  viability, T/C: 93.1%
[9]
  viability, T/C: 52.4%
[10]
  viability, T/C: 4.27%
[11]
  viability, T/C: 1.53%
[12]
  viability, T/C: 1.11%
[13]
  viability, T/C: 112%
[14]
  viability, T/C: 94.9%
[15]
  viability, T/C: 51.1%
[16]
  viability, T/C: 3.65%
[17]
  viability, T/C: 1.2%
[18]
  viability, T/C: 0.86%
[19]
  viability, T/C: 102%
[20]
  viability, T/C: 81.2%
[21]
  viability, T/C: 37.8%
[22]
  viability, T/C: 2.23%
[23]
  viability, T/C: 1.01%
[24]
  viability, T/C: 0.7%
[25]
  viability, T/C: 90.9%
[26]
  viability, T/C: 82.7%
[27]
  viability, T/C: 27.4%
[28]
  viability, T/C: 1.9%
[29]
  viability, T/C: 0.86%
[30]
  viability, T/C: 0.72%

## Nc1ccccc1NC(=O)c1ccc(CNC(=O)OCc2cccnc2)cc1 + NC1CC1c1ccc(-c2cccc(O)c2)cc1
Second compound 0.1 µM
  IC50: 57.8 nM
Second compound 0.316 µM
  IC50: 63 nM
Second compound 1 µM
  IC50: 63.6 nM
Second compound 3.16 µM
  IC50: 67.7 nM
Second compound 10 µM
  IC50: 104 nM
[3]
  viability, T/C: 77.6%
[4]
  viability, T/C: 66.3%
[5]
  viability, T/C: 37.7%
[6]
  viability, T/C: 5.54%
Second compound 0.1 µM, first compound 0.949 µM
  viability, T/C: 0.32%
Second compound 0.1 µM, first compound 3 µM
  viability, T/C: 0.4%
[9]
  viability, T/C: 78.8%
[10]
  viability, T/C: 65.5%
[11]
  viability, T/C: 42%
[12]
  viability, T/C: 7.37%
Second compound 0.316 µM, first compound 0.949 µM
  viability, T/C: 0.32%
Second compound 0.316 µM, first compound 3 µM
  viability, T/C: 0.32%
[15]
  viability, T/C: 80.2%
[16]
  viability, T/C: 63.9%
[17]
  viability, T/C: 43.9%
[18]
  viability, T/C: 8.12%
Second compound 1 µM, first compound 0.949 µM
  viability, T/C: 1.9%
Second compound 1 µM, first compound 3 µM
  viability, T/C: 0.59%
[21]
  viability, T/C: 79.5%
[22]
  viability, T/C: 70.1%
[23]
  viability, T/C: 41.9%
[24]
  viability, T/C: 7.06%
Second compound 3.16 µM, first compound 0.949 µM
  viability, T/C: 0.28%
Second compound 3.16 µM, first compound 3 µM
  viability, T/C: 0.39%
[27]
  viability, T/C: 82.2%
[28]
  viability, T/C: 70.6%
[29]
  viability, T/C: 55%
[30]
  viability, T/C: 10.2%
Second compound 10 µM, first compound 0.949 µM
  viability, T/C: 0.92%
Second compound 10 µM, first compound 3 µM
  viability, T/C: 0.55%

## Nc1ccn(C2OC(CO)C(O)C2(F)F)c(=O)n1 (stereo not given) + NC1CC1c1ccc(-c2cccc(O)c2)cc1
Second compound 0.1 µM
  IC50: > 300 nM
Second compound 0.316 µM
  IC50: > 300 nM
Second compound 1 µM
  IC50: > 300 nM
Second compound 3.16 µM
  IC50: > 300 nM
Second compound 10 µM
  IC50: > 300 nM
[1]
  viability, T/C: 119%
[2]
  viability, T/C: 105%
[3]
  viability, T/C: 97.4%
[4]
  viability, T/C: 65.2%
[5]
  viability, T/C: 68.9%
[6]
  viability, T/C: 62.6%
[7]
  viability, T/C: 106%
[8]
  viability, T/C: 107%
[9]
  viability, T/C: 79.7%
[10]
  viability, T/C: 66.8%
[11]
  viability, T/C: 67.3%
[12]
  viability, T/C: 67.7%
[13]
  viability, T/C: 108%
[14]
  viability, T/C: 108%
[15]
  viability, T/C: 75.6%
[16]
  viability, T/C: 68.7%
[17]
  viability, T/C: 61.6%
[18]
  viability, T/C: 71.2%
[19]
  viability, T/C: 117%
[20]
  viability, T/C: 104%
[21]
  viability, T/C: 96.4%
[22]
  viability, T/C: 76.2%
[23]
  viability, T/C: 67.2%
[24]
  viability, T/C: 72%
[25]
  viability, T/C: 111%
[26]
  viability, T/C: 98.2%
[27]
  viability, T/C: 91.3%
[28]
  viability, T/C: 71.9%
[29]
  viability, T/C: 72.5%
[30]
  viability, T/C: 69.3%

## O=C(c1cc(Cc2n[nH]c(=O)c3ccccc23)ccc1F)N1CCN(C(=O)C2CC2)CC1 + NC1CC1c1ccc(-c2cccc(O)c2)cc1
Second compound 0.1 µM
  IC50: > 10000 nM
Second compound 0.316 µM
  IC50: > 10000 nM
Second compound 1 µM
  IC50: > 10000 nM
Second compound 3.16 µM
  IC50: > 10000 nM
Second compound 10 µM
  IC50: > 10000 nM
Second compound 0.1 µM, first compound 0.0316 µM
  viability, T/C: 85.5%
Second compound 0.1 µM, first compound 0.1 µM
  viability, T/C: 85.3%
Second compound 0.1 µM, first compound 0.316 µM
  viability, T/C: 89.4%
Second compound 0.1 µM, first compound 1 µM
  viability, T/C: 90.4%
Second compound 0.1 µM, first compound 3.16 µM
  viability, T/C: 87.2%
Second compound 0.1 µM, first compound 10 µM
  viability, T/C: 92.3%
Second compound 0.316 µM, first compound 0.0316 µM
  viability, T/C: 98%
Second compound 0.316 µM, first compound 0.1 µM
  viability, T/C: 90.3%
Second compound 0.316 µM, first compound 0.316 µM
  viability, T/C: 86.5%
Second compound 0.316 µM, first compound 1 µM
  viability, T/C: 86.2%
Second compound 0.316 µM, first compound 3.16 µM
  viability, T/C: 91.7%
Second compound 0.316 µM, first compound 10 µM
  viability, T/C: 83%
Second compound 1 µM, first compound 0.0316 µM
  viability, T/C: 90.8%
Second compound 1 µM, first compound 0.1 µM
  viability, T/C: 88.1%
Second compound 1 µM, first compound 0.316 µM
  viability, T/C: 95.8%
Second compound 1 µM, first compound 1 µM
  viability, T/C: 92.1%
Second compound 1 µM, first compound 3.16 µM
  viability, T/C: 87.2%
Second compound 1 µM, first compound 10 µM
  viability, T/C: 78%
Second compound 3.16 µM, first compound 0.0316 µM
  viability, T/C: 90.4%
Second compound 3.16 µM, first compound 0.1 µM
  viability, T/C: 99.3%
Second compound 3.16 µM, first compound 0.316 µM
  viability, T/C: 99.3%
Second compound 3.16 µM, first compound 1 µM
  viability, T/C: 92.3%
Second compound 3.16 µM, first compound 3.16 µM
  viability, T/C: 88.9%
Second compound 3.16 µM, first compound 10 µM
  viability, T/C: 76.7%
Second compound 10 µM, first compound 0.0316 µM
  viability, T/C: 84.9%
Second compound 10 µM, first compound 0.1 µM
  viability, T/C: 93.9%
Second compound 10 µM, first compound 0.316 µM
  viability, T/C: 88.9%
Second compound 10 µM, first compound 1 µM
  viability, T/C: 83%
Second compound 10 µM, first compound 3.16 µM
  viability, T/C: 83%
Second compound 10 µM, first compound 10 µM
  viability, T/C: 80.9%
